Laboratory results from patent US8349801B2, “Peptide ligands for G-protein coupled receptors” (priority 2006, dated 2013).
Read-outs that look alike come from different tables or passages of the source. No end group written: not given here.

Tests used:
[1] = system: Isoproterenol induced rats; test: Cardiac remodeling induced by Isoproterenol; format: in vivo, Wistar rats; conditions: isoproterenol 2 mg/kg/day s.c. 7 days; peptides 1 ug/hour/Kg osmotic minipump; Losartan 1 mg/kg once a day by gavage
Method: The effect of the peptides […] (SEQ ID NO:10), […]-dimer ([…]) (SEQ ID […]), P33_V (SEQ ID NO:7), P33-dimer (P33_D) (SEQ ID NO:6) on cardiac remodeling, was tested by determining their effect on heart hypertrophy and fibrosis (deposition of collagen I, III, and fibronectin) induced by Isoproterenol. Losartan (an antagonist of the known angiotensin II receptor, AT1, Kucharewicz et al., 2002; Hypertension, (40): 774-779) was used as positive control. The negative control group was treated with vehicle only. Additional control groups included rats not-treated with isoproterenol which were treated with the peptides, with Losartan or with the vehicle. The analysis included determination of the left ventricle mass and morphometry. In addition, immunofuorescence analysis of fibronectin and collagens I and III deposition was performed by confocal microscopy. Animals Acclimatization: Male Wistar rats Age: 13-14 weeks (250 to 300 g) were maintained in the animal facilities for 7 days before the beginning of the experiment. The animals were exposed to a brightness circle of light-dark cycle of 12 hs (day-06:00 to 18:00; night-18:00 to 06:00), and the room temperature was kept at 23±2° C. Heart failure was induced by daily injections of isoproterenol (2 mg/kg/day, subcutaneously) during 7 days. […] Immunofluorescence-labeling and quantitative confocal microscopy was used to investigate the distribution and quantity of collagen types I, III and fibronectin present in the left ventricles. […] Optimal confocal settings (aperture, gain and laser power) were determined at the beginning of each imaging session and then held constant during the analysis of all the samples. […] For quantitative analysis of collagens I, III, and fibronectin, the ImageTool 2.0 image analysis program was used ([…].edu/[…]) to measure the fluorescence intensity in images randomly selected. […]

MrgX1 = target: T1, MrgX1 (Homo sapiens, UniProt Q96LB2); test: Calcium flux in CHO-K1 cells co-transfected with MrgX1 and Gα16; format: cell-based; conditions: dose response 1-3000 nM
T1 construct: expressed in transfected cells; host or cells: CHO-K1 (ATCC-CCL-61), transient co-transfection
Method: (§1) The assay was carried out in CHO cells were transiently transfected with the GPCR of choice, by utilizing the promiscuous Gα16 to divert signaling to the Gq pathway, thus enabling readout of GPCR activation by testing for Calcium flux as described by Liu et al 2003 (Biomol Screen 8, 39-49).
(§2) All the peptides thus obtained were tested for their ability to change calcium flux in CHO—K1 cells (ATCC-CCL-61) transiently co-transfected with an expression vector containing the GPCR of choice and expression vector containing the Gα16 encoding cDNA. Expression constructs containing cDNA clones for MrgX1, MrgX2, Mas or FPRL1 were commercially obtained in one of the following expression vectors: pcDNA3.1, pCMV6, or MO2.
Transient transfections were performed using CHO—K1 cells as host cells. […]
On the day of the experiment, cells were loaded with Fluo4-NW (Invitrogen) according to the manufacturer's recommendation. Plates were loaded into a FlexStation™ (Molecular Devices) plate reader and fluorescence was monitored. Seventeen seconds following initiation of reading, cells were stimulated with the indicated agonist/compound at final concentration of 1 μM. […]
Based on dose response experiments, EC50 best fit values were calculated by non-linear regression of sigmoidal dose-response curves, using Prism version 4 (GraphPad Software Inc., San Diego, Calif.). […]

MrgX2 = target: T2, MrgX2 (Homo sapiens, UniProt Q96LB1); test: Calcium flux in CHO-K1 cells co-transfected with MrgX2 and Gα16; format: cell-based; conditions: for calcium flux relative to the negative control: 1 μM, about 20 to 90 seconds; for eliciting calcium flux compared to cortistatin-14: MrgX2-expressing cells, summary statement
T2 construct: expressed in transfected cells; host or cells: CHO-K1 (ATCC-CCL-61), transient co-transfection
T2 sequence (Q96LB1 1-330): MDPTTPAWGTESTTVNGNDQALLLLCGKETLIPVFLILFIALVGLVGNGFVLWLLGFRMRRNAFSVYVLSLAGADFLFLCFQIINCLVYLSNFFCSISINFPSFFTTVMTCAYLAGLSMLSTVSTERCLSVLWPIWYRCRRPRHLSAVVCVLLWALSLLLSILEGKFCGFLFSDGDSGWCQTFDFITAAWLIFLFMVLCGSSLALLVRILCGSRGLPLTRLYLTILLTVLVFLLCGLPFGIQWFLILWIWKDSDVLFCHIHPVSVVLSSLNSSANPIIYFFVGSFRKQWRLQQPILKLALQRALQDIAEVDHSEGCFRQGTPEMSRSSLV
Method: as §1, §2
(§3) Transient transfections were performed using CHO—K1 cells as host cells. Cells (12 million) were plated into T75 flasks on the day preceding transfection. Cells were transfected with the appropriate GPCR expression vector and with a vector expressing Gα16 using a lipid-based reagent, MTI, according to the manufacturer's recommendation. Cells were transfected for 5 hours, then re-plated into 96-well dishes (60,000 cells per well) and grown overnight.
(§4) On the day of the experiment, cells were loaded with Fluo4-NW (Invitrogen) according to the manufacturer's recommendation. Plates were loaded into a FlexStation™ (Molecular Devices) plate reader and fluorescence was monitored. Seventeen seconds following initiation of reading, cells were stimulated with the indicated agonist/compound at final concentration of 1 μM. Each 96 well plate contained cells transfected with one GPCR expression vector and each of the examined peptides was tested in triplicate.
(§5) We defined a hit as a peptide which elicited a clear and distinct increase in intracellular calcium that is clearly visible and statistically significant upon examination of the calcium trace for at least two repeats. The criterion for statistical significance was a p-value lower than 0.001 in a t-test comparing the levels of calcium before and after peptide addition.
(§6) Based on dose response experiments, EC50 best fit values were calculated by non-linear regression of sigmoidal dose-response curves, using Prism version 4 (GraphPad Software Inc., San Diego, Calif.). The formulae for the sigmoidal dose-response curves was defined as Y=Bottom+(Top−Bottom)/(1+10^ (LogEC50−X)*HillSlope))
The ability of Peptides to change calcium flux was examined in CHO—K1 cells co-transfected with MrgX2 and Gal 6.

FPRL1 = target: T3, FPRL1 (Homo sapiens, UniProt P25090); test: Calcium flux in CHO-K1 cells co-transfected with FPRL1 and Gα16; format: cell-based; design: expressed in transfected cells; host or cells: CHO-K1 (ATCC-CCL-61), transient co-transfection; conditions: for calcium flux, P58 and derivatives: dose response
T3 sequence (P25090 1-351): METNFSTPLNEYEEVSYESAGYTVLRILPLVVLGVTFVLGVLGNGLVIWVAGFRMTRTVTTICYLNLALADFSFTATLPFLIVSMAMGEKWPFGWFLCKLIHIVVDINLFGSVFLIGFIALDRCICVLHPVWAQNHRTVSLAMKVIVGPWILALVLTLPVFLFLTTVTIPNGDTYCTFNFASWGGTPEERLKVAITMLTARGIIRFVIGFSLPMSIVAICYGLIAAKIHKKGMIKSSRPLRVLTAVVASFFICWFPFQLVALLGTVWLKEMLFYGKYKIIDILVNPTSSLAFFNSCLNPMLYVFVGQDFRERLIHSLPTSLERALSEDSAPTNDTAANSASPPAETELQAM
Method: as §1, §2, §3, §4, §5, §6
The ability of Peptides to change calcium flux was examined in CHO—K1 cells co-transfected with FPRL1 and Gal 6.

[2] = system: Zymosan-induced murine dorsal air pouch model; format: in vivo, mice; conditions: 4 h; for inhibition of zymosan-induced neutrophil (GR-1+) accumulation: FACS
Method: The anti-inflammatory activity of P58 shorter derivatives was tested in the same model of acute inflammation used in Example 6, the Zymosan-induced murine dorsal air pouch model.
Male out-bred Swiss albino mice were purchased from Harlan, UK (T.O. strain) and maintained on a standard chow pellet diet with tap water ad libitum and a 12:00 h light/dark cycle. All animals were housed for 7 days prior to experimentation to allow body weight to reach ˜25 g on the day of the experiment.
Drugs were stored at −20° C. and defrosted on the day of the experiment. Peptide P58 (SEQ ID NO:1) was provided lyophilized; it was taken back to room temperature and dissolved with sterile PBS before use to make an initial 1 mg/ml solution. Peptide P58-4 (SEQ ID NO:2) was provided lyophilized; it was taken back to room temperature and dissolved with sterile PBS before use to make an initial 327 μg/ml solution. Peptide P58-5 (SEQ ID NO:3) was provided lyophilized; it was taken back to room temperature and dissolved with sterile PBS before use to make an initial 476 μg/ml solution. Vehicle consisted of sterile pyrogen free PBS (Gibco, cat no. 14190-094). Once dissolved, peptides P58 (SEQ ID NO:1), P58-4 (SEQ ID NO:2) and P58-5 (SEQ ID NO:3) gave a clear solution. Drugs or vehicle were administered i.v. at a final volume of 200 μl in the doses described below.
Lavage fluids were kept all the time on ice, then used to determine the number of migrated leukocytes, by taking an aliquot (100 μl) and diluting it 1:10 in Turk's solution (0.01% crystal violet in 3% acetic acid). The samples were then vortexed and 10 μl of the stained cell solution were placed in a Neubauer haematocymometer. Differential cell count was done using a light microscope (Olympus B061). In view of their chromatic characteristics and their nucleus and cytoplasm appearance, polymorphonuclear leukocytes (PMN; >95% neutrophils) could be easily identified.
For FACS analyses, an aliquot of lavage fluid was stained with the PE-conjugated anti-GR-1 monoclonal antibody (1:100 dilution, eBiosciences; Cat 11-5931) to mark polymorphonuclear leukocytes. Staining was performed at 4° C. Flow cytometry was performed using FACScan analyser (Becton Dickinson, Cowley, UK) with air-cooled 100 mW argon laser tuned to 488 nm connected to an Apple Macintosh G3 computer running Cell Quest II software. Forward and sidescatter characteristics were initially used to distinguish between the three distinct cell populations (lymphocytes, monocytes and granulocytes). Cells positive for GR-1 were detected in the FL2 channel (wavelength of 548 nm). Data are expressed as percentage of positive cells (in relation to the specific mAb). Determination of positive and negative populations was performed based on the control staining with irrelevant IgG isotype (rat IgG2b) labelled with PE. Once determined, quadrants were rigorously maintained for all analyses.
Data are shown for single mice, and also shown as mean±S.E. of (n) mice per group. Statistical differences were determined by ANOVA, plus Student Newman Keuls test. A P value<0.05 was taken as significant.

T1 sequence (Q96LB2 whole entry): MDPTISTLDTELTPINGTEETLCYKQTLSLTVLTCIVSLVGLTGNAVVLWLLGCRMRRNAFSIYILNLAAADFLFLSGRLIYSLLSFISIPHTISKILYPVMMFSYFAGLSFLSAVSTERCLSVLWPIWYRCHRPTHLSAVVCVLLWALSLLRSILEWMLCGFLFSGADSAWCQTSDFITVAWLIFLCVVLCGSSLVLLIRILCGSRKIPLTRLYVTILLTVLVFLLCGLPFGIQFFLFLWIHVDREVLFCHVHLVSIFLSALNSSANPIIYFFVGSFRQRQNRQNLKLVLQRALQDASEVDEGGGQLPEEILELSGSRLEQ

## CCCCc1nc(Cl)c(CO)n1Cc1ccc(-c2ccccc2-c2nn[nH]n2)cc1 [Losartan, reference compound]
[1]
  effect on Isoproterenol induced raise in the left ventricle to body mass ratio (LV/BW): did not have an effect

## GIGSVWHWKHRVATRFTLPRFLQ [Peptide P60_S]
MrgX1
  EC50: ≥ 0.3 µM

## AAQATGPLQDNELPGLDERPPRAHAQHFHKHQLWPSPFRALKPRP (listed as Homo sapiens) [Peptide P94]
MrgX2
  calcium flux relative to the negative control: increased calcium flux
  eliciting calcium flux compared to cortistatin-14: superior to cortistatin-14
FPRL1; 1 μM, three wells, about 20 to 90 seconds
  calcium flux relative to the negative control: increased calcium flux

## FTSWFM-amide (FTSWFM-NH2; listed as Homo sapiens) [P58—4]
[2]; 20 nmole/mouse i.v.
  inhibition of leukocyte accumulation triggered by zymosan A: 35%
[2]; 80 nmole/mouse i.v.
  inhibition of leukocyte accumulation triggered by zymosan A: 47%
  inhibition of zymosan-induced neutrophil (GR-1+) accumulation: 49%
FPRL1
  calcium flux, P58 and derivatives: elicited calcium flux

## AHAQHFHKHQLWPSPFRALKPRP (listed as Homo sapiens) [Peptide 63]
MrgX2
  calcium flux relative to the negative control: increased calcium flux
  eliciting calcium flux compared to cortistatin-14: superior to cortistatin-14

## CSCC[C@H](NC(=O)[C@H](Cc1ccccc1)NC(=O)CNC(=O)CNC(=O)[C@@H](N)Cc1ccc(O)cc1)C(=O)N[C@@H](CCCNC(=N)N)C(=O)N[C@@H](CCCNC(=N)N)C(=O)N[C@H](C(=O)NCC(=O)N[C@@H](CCCNC(=N)N)C(=O)N1CCC[C@H]1C(=O)N[C@@H](CCC(=O)O)C(=O)N[C@@H](Cc1c[nH]c2ccccc12)C(=O)N[C@@H](Cc1c[nH]c2ccccc12)C(=O)N[C@@H](CCSC)C(=O)N[C@@H](CC(=O)O)C(=O)N[C@@H](Cc1ccc(O)cc1)C(=O)N[C@@H](CCC(N)=O)C(=O)N[C@@H](CCCCN)C(=O)N[C@@H](CCCNC(=N)N)C(=O)N[C@@H](Cc1ccc(O)cc1)C(=O)NCC(=O)O)C(C)C [BAM22, reference compound]
MrgX1
  EC50: ≥ 0.05 µM

## LQKFTSWFM-amide (LQKFTSWFM-NH2; listed as Homo sapiens) [P58—5]
[2]; 20 nmole/mouse i.v.
  inhibition of leukocyte accumulation triggered by zymosan A: did not inhibit leukocyte migration
  inhibition of zymosan-induced neutrophil (GR-1+) accumulation: weak effect
[2]; 80 nmole/mouse i.v.
  inhibition of leukocyte accumulation triggered by zymosan A: 29%
FPRL1
  calcium flux, P58 and derivatives: elicited calcium flux
